Our source for the IC50 values is patent US8278304B2, “Substituted 4-hydroxypyrimidine-5-carboxamides” (Merck Sharp & Dohme Corp., priority 2008, dated 2012).

Each structure is given as a SMILES string. Structures can show the parent of a compound that is named as a salt. Where only a bound is given, the exact number is not on record here.

This experiment deals with T1, PHD2 (Homo sapiens, UniProt Q9GZT9).
T1 construct: FLAG-tagged full length PHD2 expressed in and purified from baculovirus-infected Sf9 cells; FLAG; made in house; host or cells: baculovirus-infected Sf9 cells
The experiment can be described thus: PHD2 / HIF-1α peptide hydroxylation assay, time resolved fluorescence (VHL complex detection). The format is biochemical. As to conditions: FLAG-tagged full length PHD2; 0.2 μM 2-oxoglutarate, 0.5 μM HIF-1α peptide; read-out: PHD2 Activity (PHD2 binding activity expressed as IC50 (nM)). The procedure: To each well of a 96-well plate was added 1 μL of test compound in DMSO and 20 μl of assay buffer (50 mM Tris pH 7.4/0.01% Tween-20/0.1 mg/ml bovine serum albumin/10 μM ferrous sulfate/1 mM sodium ascorbate/20 μg/ml catalase) containing 0.15 μg/ml FLAG-tagged full length PHD2 expressed in and purified from baculovirus-infected Sf9 cells. After a 30 min preincubation at room temperature, the enzymatic reactions were initiated by the addition of 4 μL of substrates (final concentrations of 0.2 μM 2-oxoglutarate and 0.5 μM HIF-1α peptide biotinyl-[…]).

T1 sequence (Q9GZT9 whole entry): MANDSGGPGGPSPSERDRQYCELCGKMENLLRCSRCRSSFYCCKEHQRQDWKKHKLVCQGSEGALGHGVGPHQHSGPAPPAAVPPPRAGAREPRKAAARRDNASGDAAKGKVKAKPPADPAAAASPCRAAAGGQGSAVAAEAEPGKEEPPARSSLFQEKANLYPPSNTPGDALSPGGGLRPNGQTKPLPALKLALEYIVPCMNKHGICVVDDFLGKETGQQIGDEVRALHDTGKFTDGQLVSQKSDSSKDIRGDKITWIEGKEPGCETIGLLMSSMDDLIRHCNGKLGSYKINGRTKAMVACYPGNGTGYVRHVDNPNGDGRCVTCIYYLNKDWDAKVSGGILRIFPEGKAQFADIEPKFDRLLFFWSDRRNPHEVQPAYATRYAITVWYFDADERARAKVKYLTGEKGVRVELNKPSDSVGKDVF

On to `CC(O)c1ccc(C(NC(=O)c2cnc(-c3cccnn3)nc2O)c2ccc(Cl)cc2)cc1` (centres unmarked) [Example 179, N-{(4-chlorophenyl)[4-(1-hydroxyethyl)phenyl]methyl}-4-hydroxy-2-(pyridazin-3-yl)pyrimidine-5-carboxamide], for which the IC50 is at most 10 nM.
Next, `COc1ccc(C(NC(=O)c2cnc(-c3cccnn3)nc2O)c2ccc(F)cc2)c(OC)n1` (centres unmarked) [Example 177, N-[(2,6-dimethoxypyridin-3-yl)(4-fluorophenyl)methyl]-4-hydroxy-2-(pyridazin-3-yl)pyrimidine-5-carboxamide]: at most 10 nM; `COc1ccc(C(NC(=O)c2cnc(-c3ccccn3)nc2O)c2ccc(OC)cc2)cc1` [Example 14, N-[bis(4-methoxyphenyl)methyl]-4-hydroxy-2-pyridin-2-ylpyrimidine-5-carboxamide]: at most 10 nM.
The same measure for `O=C(NCc1ccc(-c2ccccc2)nc1)c1cnc(-n2cccn2)nc1O` [Example 105, 4-Hydroxy-N-[(6-phenylpyridin-3-yl)methyl]-2-(1H-pyrazol-1-yl)pyrimidine-5-carboxamide]: at most 10 nM; for `COc1cccc([C@H](C)NC(=O)c2cnc(-n3cccn3)nc2O)c1` [Example 126, 4-hydroxy-N-[(1S)-1-(3-methoxyphenyl)ethyl]-2-(1H-pyrazol-1-yl)pyrimidine-5-carboxamide]: at most 10 nM.
With `CC(C)(NC(=O)c1cnc(-n2cccn2)nc1O)c1ccc(C(F)(F)F)nc1` [Example 74, 4-Hydroxy-N-{1-methyl-1-[6-(trifluoromethyl)pyridin-3-yl]ethyl}-2-(1H-pyrazol-1-yl)pyrimidine-5-carboxamide], the IC50 is at most 10 nM.
The same measure for `O=C(NCc1cnc(Cl)cn1)c1cnc(-n2cccn2)nc1O` [Example 64, N-[(5-chloropyrazin-2-yl)methyl]-4-hydroxy-2-(1H-pyrazol-1-yl)pyrimidine-5-carboxamide]: 10 to 100 nM.
Next, `O=C(NN1CCCCC1)c1cnc(-n2cccn2)nc1O` [Example 80, 4-hydroxy-N-piperidin-1-yl-2-(1H-pyrazol-1-yl)pyrimidine-5-carboxamide trifluoroacetate (salt)]: 10 to 100 nM; `O=C(NC1(c2ccccc2)CCCCC1)c1cnc(-c2cccnn2)nc1O` [Example 27, 4-hydroxy-N-(1-phenylcyclohexyl)-2-pyridazin-3-ylpyrimidine-5-carboxamide]: at most 10 nM; `O=C(O)c1ccc(-c2ncc(C(=O)NCc3ccc(F)cc3)c(O)n2)nc1` [Example 3, 6-(5-{[(4-Fluorobenzyl)amino]carbonyl}-4-hydroxypyrimidin-2-yl)nicotinic acid]: 10 to 100 nM.
In the case of `O=C(NC1c2ccccc2-c2ccccc21)c1cnc(-n2cccn2)nc1O` [Example 102, N-9H-fluoren-9-yl-4-hydroxy-2-(1H-pyrazol-1-yl)pyrimidine-5-carboxamide], the IC50 was at most 10 nM.
Next, `COCc1ccc(C(NC(=O)c2cnc(-c3cccnn3)nc2O)c2ccc(OC)cc2)cc1` (racemic) [Example 181]: at most 10 nM; `CC[C@H](NC(=O)c1cnc(-n2cccn2)nc1O)c1ccccc1` [Example 48, 4-Hydroxy-N-[(1S)-1-phenylpropyl]-2-(1H-pyrazol-1-yl)pyrimidine-5-carboxamide]: at most 10 nM; `O=C(NCc1ccc(Cl)cc1Cl)c1cnc(-n2cccn2)nc1O` [Example 51, N-(2,4-dichlorobenzyl)-4-hydroxy-2-(1H-pyrazol-1-yl)pyrimidine-5-carboxamide]: at most 10 nM.
Next, `O=C(N[C@H](c1ccccc1)[C@H](O)c1ccccc1)c1cnc(-n2cccn2)nc1O` [Example 127, 4-hydroxy-N-[(1R,2R)-2-hydroxy-1,2-diphenylethyl]-2-(1H-pyrazol-1-yl)pyrimidine-5-carboxamide]: at most 10 nM; `COc1ccc(C(NC(=O)c2cnc(-c3cccnn3)nc2O)c2ccc(C#N)cc2)c(OC)c1` (single isomer, unassigned) [Example 155, N-[(4-cyanophenyl)(2,4-dimethoxyphenyl)methyl]-4-hydroxy-2-(pyridazin-3-yl)pyrimidine-5-carboxamide]: at most 10 nM; `CC(C)(NC(=O)c1cnc(-n2cccn2)nc1O)c1ccc(F)cc1` [Example 73, N-[1-(4-fluorophenyl)-1-methylethyl]-4-hydroxy-2-(1H-pyrazol-1-yl)pyrimidine-5-carboxamide]: at most 10 nM.
Turning to `COc1ccc([C@H](C)NC(=O)c2cnc(-n3cc(C)cn3)nc2O)cc1` [Example 134, 4-hydroxy-N-[(1S)-1-(4-methoxyphenyl)ethyl]-2-(4-methyl-1H-pyrazol-1-yl)pyrimidine-5-carboxamide], the IC50 was at most 10 nM.
The same measure for `N#Cc1ccc(C(NC(=O)c2cnc(-c3cccnn3)nc2O)C2CCCCC2)cc1` (single isomer, unassigned) [Example 162, N-[(4-cyanophenyl)(cyclohexyl)methyl]-4-hydroxy-2-(pyridazin-3-yl)pyrimidine-5-carboxamide]: 100 to 1000 nM; for `COc1ccc(C(NC(=O)c2cnc(-c3cccnn3)nc2O)c2ccc3c(c2)CCO3)cc1` (single isomer, unassigned) [Example 164, N-[2,3-dihydro-1-benzofuran-5-yl(4-methoxyphenyl)methyl]-4-hydroxy-2-(pyridazin-3-yl)pyrimidine-5-carboxamide]: at most 10 nM.
Next, `COc1ccc(C(NC(=O)c2cnc(-c3cccnn3)nc2O)c2nc(C)cs2)cc1` (single isomer, unassigned) [Example 144, 4-hydroxy-N-[(4-methoxyphenyl)(4-methyl-1,3-thiazol-2-yl)methyl]-2-(pyridazin-3-yl)pyrimidine-5-carboxamide]: at most 10 nM; `C[C@H](NC(=O)c1cnc(-n2cccn2)nc1O)C1CCCCC1` [Example 85, N-[(1S)-1-cyclohexylethyl]-4-hydroxy-2-(1H-pyrazol-1-yl)pyrimidine-5-carboxamide]: 10 to 100 nM; `O=C(NCc1ccc(F)cc1)c1cnc(-c2cnccn2)nc1O` [Example 18, N-(4-fluorobenzyl)-4-hydroxy-2-pyrazin-2-ylpyrimidine-5-carboxamide]: 100 to 1000 nM.
Regarding `COc1ccc(C(NC(=O)c2cnc(-c3cccnn3)nc2O)c2ccc(C#N)nc2)cc1` (centres unmarked) [Example 112, N-[(6-cyanopyridin-3-yl)(4-methoxyphenyl)methyl]-4-hydroxy-2-pyridazin-3-ylpyrimidine-5-carboxamide], the IC50 is at most 10 nM.
Next, `O=C(NC1(c2ccccc2)CC1)c1cnc(-n2cccn2)nc1O` [Example 87, 4-Hydroxy-N-(1-phenylcyclopropyl)-2-(1H-pyrazol-1-yl)pyrimidine-5-carboxamide]: at most 10 nM.
The same measure for `CC(C)(NC(=O)c1cnc(-n2cccn2)nc1O)C(=O)O` [Example 188, N-{[4-hydroxy-2-(1H-pyrazol-1-yl)pyrimidin-5-yl]carbonyl}-2-methylalanine]: 100 to 1000 nM; for `COc1ccc(C(NC(=O)c2cnc(-c3cccnn3)nc2O)c2ccc3cc(OC)ccc3n2)cc1` (centres unmarked) [Example 172, 4-hydroxy-N-[(4-methoxyphenyl)(6-methoxyquinolin-2-yl)methyl]-2-(pyridazin-3-yl)pyrimidine-5-carboxamide]: at most 10 nM; for `COc1ccc(C(NC(=O)c2cnc(-c3cccnn3)nc2O)c2cccc(C)n2)c(OC)c1` (single isomer, unassigned) [Example 149, N-[(2,4-dimethoxyphenyl)(6-methylpyridin-2-yl)methyl]-4-hydroxy-2-(pyridazin-3-yl)pyrimidine-5-carboxamide]: at most 10 nM.
The same measure for `O=C(NCc1nc2ccccc2s1)c1cnc(-n2cccn2)nc1O` [Example 55, N-(1,3-benzothiazol-2-ylmethyl)-4-hydroxy-2-(1H-pyrazol-1-yl)pyrimidine-5-carboxamide]: at most 10 nM.
Take `O=C(N[C@H]1CCc2ccccc21)c1cnc(-n2cccn2)nc1O` [Example 119, N-[(1S)-2,3-dihydro-1H-inden-1-yl]-4-hydroxy-2-(1H-pyrazol-1-yl)pyrimidine-5-carboxamide]: the IC50 fell in the range of 10 to 100 nM.
Regarding `O=C(NCc1ccc(C(F)(F)F)cc1F)c1cnc(-n2cccn2)nc1O` [Example 68, N-[2-fluoro-4-(trifluoromethyl)benzyl]-4-hydroxy-2-(1H-pyrazol-1-yl)pyrimidine-5-carboxamide], the half-inhibitory concentration (IC50) lay in the range of 10 to 100 nM.
As for `O=C(N[C@H](c1ccccc1)[C@@H](O)c1ccccc1)c1cnc(-n2cccn2)nc1O` [Example 120, 4-hydroxy-N-[(1R,2S)-2-hydroxy-1,2-diphenylethyl]-2-(1H-pyrazol-1-yl)pyrimidine-5-carboxamide], the IC50 is at most 10 nM.
The same measure for `COc1ccc(C(NC(=O)c2cnc(-c3cccnn3)nc2O)c2ccc(F)cc2)c(OC)c1` (centres unmarked) [Example 176, N-[(2,4-dimethoxyphenyl)(4-fluorophenyl)methyl]-4-hydroxy-2-(pyridazin-3-yl)pyrimidine-5-carboxamide]: at most 10 nM; for `COc1ccc(C(NC(=O)c2cnc(-n3cccn3)nc2O)c2ccc(OC)nc2)cc1` (centres unmarked) [Example 167, 4-hydroxy-N-[(4-methoxyphenyl)(6-methoxypyridin-3-yl)methyl]-2-(1H-pyrazol-1-yl)pyrimidine-5-carboxamide trifluoroacetate (salt)]: at most 10 nM.
Next, `C[C@H](NC(=O)c1cnc(-c2cccnn2)nc1O)c1ccc(Oc2ccccc2)cc1` [Example 137, 4-hydroxy-N-[(1S)-1-(4-phenoxyphenyl)ethyl]-2-(pyridazin-3-yl)pyrimidine-5-carboxamide]: at most 10 nM.
